Measured values reported in patent US20060134729A1, “Process for the universal detection of microorganisms and reaction environment permitting the implementation of the process” (HEMOSYSTEM, a corporation of France, priority 2002, published 2006).

Columns and labels:
[1] = test system: Escherichia coli, Serratia marcescens, Staphylococcus epidermidis; experiment: Optimization of nisine/EDTA concentrations, entirety of bacteria tested; type: cell-based
Experimental: (§1) Prepare a solution of PicoGreen at 1/2000 (molecular probe) in PBS buffer (saline phosphate buffer, pH 7.4).
(§2) […] nisine (starting material at 2.5% weight/weight) in 50 ml distilled water or 10 μg/ml,
(§3) Nisine 0.05 μg/ml/EDTA 7.5 mM: 250 μl nisine 10 μg/ml +0.140 g disodic EDTA, QSP 50 mL distilled water,
(§4) Nisine 0.1 μg/ml/EDTA 7.5 mM: […] nisine 10 μg/ml +0.140 g disodic EDTA, QSP 50 mL distilled water,
(§5) Nisine 0.5 μg/ml/EDTA 7.5 mM: 2.5 ml nisine 10 μg/ml+0.140 g disodic EDTA, QSP 50 mL water.
(§6) • Escherichia coli (CIP 105901) • Staphylococcus epidermidis (CIP 68.21) • Serratia marcescens (CIP 103716)
(§7) Adjust the preparations to obtain a suspension with 10^3 bacteria/ml.
(§8) • 1.2 mL marking solution • +3 mL bacterial suspension • Incubation 15 minutes at 22° C. • +7 ml solution of nisine/EDTA at different concentrations • Filtration on char filter 0.4 μm porosity. III Analysis and Results
(§9) After filtration, the filter is analyzed by cytometry in solid phase and the results expressed as the number of bacteria detected in cytometry in solid phase.

[2] = test system: Escherichia coli; experiment: PicoGreen DNA marking with association nisine/EDTA, cytometry in solid phase; type: cell-based
Experimental: as §1
Nisine 10 μg/ml: 0.02 g nisine (starting material at 2.5% weight/weight) QSP 50 ml distilled water. • EDTA 20 mM: 0.372 g disodic EDTA, QSP 50 ml of distilled water, • Prepare a range of EDTA with 0.25; 2.5; 12.5 and 18.75 ml of EDTA 20 mM (concentration range 0.1; 1; 5 and 7.5 mM), • Add 50, 250, 500 μl or 1 ml nisine 10 μg/ml (concentration range […]; 0.05; 0.1 and […]), • QSP 50 ml of distilled water. Suspension of Bacteria Prepared in PBS • Escherichia coli (CIP 105901)
as §7
• 1.2 ml of marking solution • +3 ml bacterial suspension • Incubation 15 minutes at 22° C. • +7 ml of solution of nisine or nisine/EDTA • Filtration on char filter 0.4 μm porosity. III Analysis and Results
After filtration, the filter is analyzed by cytometry in solid phase and the results expressed as the number of bacteria detected in cytometry in solid phase and as a percentage of bacteria detected relative to the method of enzymatic detection.

[3] = test system: Staphylococcus epidermidis; settings: EDTA 5 mM; PBS, distilled water, TSB, plasma
Experimental: (§10) Prepare a solution of PicoGreen at 1/2000 (molecular probe) in PBS buffer. EDTA 5 mM: 0.093 g disodic EDTA, QSP 50 mL distilled water. Suspension of bacteria prepared in PBS in distilled water in a TSB (tryptone soy broth) environment and in plasma. • Escherichia coli (CIP 105901) • Staphylococcus epidermidis (CIP 68.21) Adjust the preparations to obtain a suspension with 10^3 bacteria/ml. • 1.2 mL of marking solution • +3 mL of bacterial suspension in the various environments • Incubation 15 minutes at 22° C. • +7 mL of EDTA solution • Filtration on char filter 0.4 μm porosity. III Analysis and Results After filtration, the filter is analyzed by cytometry in solid phase and the results are expressed as the number of fluorescent bacteria.

[4] = test system: Escherichia coli; settings: EDTA 5 mM; PBS, distilled water, TSB, plasma
Experimental: as §10

[5] = test system: Staphylococcus epidermidis; experiment: Marking with nisine/EDTA/N octyl glucopyranoside; type: cell-based; settings: NOG 0.25% and 0.5% with nisine 0.2 μg/ml, EDTA 7.5 mM
Experimental: (§11) 100 μg/ml: […] (starting material at 2.5% weight/weight) QSP 50 ml distilled water. • EDTA 100 mM: […] disodic EDTA, QSP 50 ml distilled water, • N octyl glucopyranoside 5%: 2.5 g in 50 ml distilled water • 20, 10, 5 or 2.5 ml NOG at 5% • +3.75 ml EDTA 100 mM • +0.1 ml […] 100 μg/ml • QSP 50 ml distilled water • This solution is at pH 4.8.

[6] = test system: Pseudomonas aeruginosa; experiment: Marking with nisine/EDTA/N octyl glucopyranoside; type: cell-based; settings: NOG 0.25% and 0.5% with nisine 0.2 μg/ml, EDTA 7.5 mM
Experimental: as §11

[7] = test system: Staphylococcus epidermidis; experiment: Marking in the presence of chlorohexidine alone, Gram+; type: cell-based; settings: chlorohexidine 0.005%
Experimental: (§12) Test implementing chlorohexidine only as permeabilizing agent for favoring the penetration of the bacterial marking agent. […] The counting on a Petri dish at 48 hours takes place with the reference method. The results of this experiment with a composition of the reaction environment comprising chlorohexidine as cellular penetration reactant to improve the marking of Escherichia coli, Pseudomonas aeruginosa and Serratia marcescens (Gram (−) bacterial strains) and Staphylococcus epidermidis are illustrated in FIG. 8.

[8] = test system: Pseudomonas aeruginosa; experiment: Marking in the presence of chlorohexidine alone in different environments; type: cell-based; settings: bacteria in PBS, platelet concentrate, autologous plasma
Experimental: Test implementing chlorohexidine only as permeabilizing agent for favoring the penetration of the bacterial marking agent. […] The counting on a Petri dish at 48 hours takes place with the reference method.

[9] = test system: Escherichia coli, Pseudomonas aeruginosa and Serratia marcescens; experiment: Marking in the presence of chlorohexidine alone, Gram- strains; type: cell-based; settings: tested range 0.01%, 0.005%, 0.001%
Experimental: as §12

[10] = test system: Escherichia coli, Staphylococcus epidermidis, Serratia marcescens, Pseudomonas aeruginosa; experiment: Marking with association chlorohexidine/N-octyl glucopyranoside; type: cell-based; settings: most elevated chlorohexidine concentration (0.001% vs 0.0005%) with NOG; PBS and platelet concentrate
Description: The results of this experiment showing the marking of DA and the detection of marked bacteria in the presence of a composition of the reaction environment comprising chlorohexidine in association with NOG for increasing the permeabilizing power and the penetration of the marker are illustrated in FIGS. 10A and 10B.

[11] = test system: Staphylococcus epidermidis; experiment: PicoGreen DNA marking with nisine alone, cytometry in solid phase; type: cell-based; settings: nisine solutions 2, 10, 50 μg/ml, bacteria in PBS
Experimental: The use of nisine solely as a permeabilizing agent for facilitating penetration of the marking agent.
Prepare a series of dilutions of nisine (starting material at 2.5% weight/weight) in distilled water: • 0.1 g nisine in 50 ml distilled water=solution 50 μg/ml, • 0.02 g of nisine in 50 ml distilled water=solution 10 μg/ml, • 0.004 g of nisine in 50 ml distilled water=solution 2 μg/ml. Suspension of Bacteria Prepared in PBS • Escherichia coli (CIP 105901) • Staphylococcus epidermidis (68.21)
Adjust the preparations in order to obtain a suspension with 10^4 bacteria/ml.

[12] = test system: Escherichia coli; experiment: Optimization of nisine/EDTA concentrations, cytometry in solid phase; type: cell-based; settings: EDTA fixed at 7.5 mM
Experimental: as §1, §2, §3, §4, §5, §6, §7, §8, §9

Compound: O=C([O-])CN(CCN(CC(=O)[O-])CC(=O)O)CC(=O)O.[Na+].[Na+] [EDTA, disodic EDTA]
- EDTA concentration giving better detection of the entirety of bacteria tested ([1]; associated with nisine 0.2 μg/ml): 7.5 mM
- EDTA concentration at which percentage of marked Escherichia coli is maximal ([2]; with nisine 0.1 μg/ml): 7.5 mM
- marking of Gram+ bacteria with EDTA by itself [3]: does not permit a correct marking
- marking of Gram- bacteria with EDTA by itself [4]: does not permit a correct marking

Compound: CCCCCCCCO[C@@H]1O[C@H](CO)[C@@H](O)[C@H](O)[C@H]1O [N octyl glucopyranoside, N-octyl β D-glucopyranoside]
- effect of addition on the marking of Staphylococcus epidermidis [5]: positive effects
- effect of addition on the marking of Pseudomonas aeruginosa [6]: positive effects

Compound: CC(=O)O.CC(=O)O.NC(=N\CCCCCC/N=C(N)/N=C(\N)Nc1ccc(Cl)cc1)/N=C(\N)Nc1ccc(Cl)cc1 [chlorohexidine, Diacetate chlorohexidine]
- effect on Gram+ bacteria [7]: toxic
- effect of plasma on cellular penetration of the marker with chlorohexidine [8]: presence of plasma antagonizes the effect
- optimal concentration for the detection of Gram- bacteria [9]: 0.005%
- marking of the bacteria [10]: best marking

Compound: nisine
- nisine concentration giving better detection of the entirety of bacteria tested ([1]; associated with EDTA 7.5 mM): 0.2 µg/mL
- nisine concentration at which percentage of marked Escherichia coli is maximal ([2]; with EDTA 7.5 mM): 0.1 µg/mL
- preferable nisine concentration for marking [11]: low concentrations are preferable
- marking of the Gram+ on addition of nisine ([11]; PicoGreen): good marking
- nisine concentration at which percentage of marked Escherichia coli is maximal [12]: 0.1 µg/mL
